# Experimental data from patent US4954510A, “Antiviral agent containing lactam compound” (Meiji Seika Kaisha, Ltd., priority 1987, dated 1990).
# Where a name gives a salt, the structure may show the parent alone. Read-outs that look alike come from different tables or passages of the source.
# Columns and labels:
# [1] = inhibition of growth of normal non-infected cells (MT-2); assay type: cell-based, human; settings: human; MT-2 cells without HIV, 7 days, viable cell count by colorimetry; read-out: IC50 (concentration giving a 50% inhibition of growth of normal non-infected cells)
# Protocol: (§1) Namely, the host human T-lymphotropic MT-2 cell line is transplanted on a microtiter plate and a series of dilutions of the test compounds shown in the table below are added with or without addition of HIV, followed by incubation for 7 days. For evaluation, the residual viable cell count is then determined by colorimetry.
# (§2) In the above table, EC50 means the concentration of the test compound giving a 50% decrease in the cytocidal effect of HIV and IC50 means the concentration of the test compound giving a 50% inhibition of growth of normal non-infected cells.
# [2] = acute toxicity (LD50) in mice; settings: mouse, in vivo
# Protocol: The LD50 value of D-glucaro-δ-lactam sodium salt in mice is not less than 3 g/kg by the intraveous injection and not less than 5 g/kg by the oral administration. The LD50 value of D-glucaro-δ-lactam methyl ester in mice is not less than 5 g/kg by the intraveous injection and not less than 10 g/kg by the oral administration. With respect to 6-O-triphenylmethyl-D-gluco-δ-lactam, the LD50 value is not less than 300 mg/kg in case of the subcutaneous administration in mice.
# HIV = assay: in vitro anti-HIV activity: decrease in the cytocidal effect of HIV on MT-2 cells; assay type: cell-based; settings: for EC50: Human immunodeficiency virus 1, MT2, 168 h, read-out: EC50 (concentration giving a 50% decrease in the cytocidal effect of HIV); for TI50 (IC50/EC50): ratio IC50/EC50, 10080 min
# Protocol: as §1, §2
# [3] = system: human T-lymphotropic MT-2 cell line; assay: inhibition of growth of normal non-infected cells (MT-2); assay type: cell-based; settings: Homo sapiens, MT2, 168 h; MT-2 cells without HIV, 7 days, viable cell count by colorimetry; read-out: IC50 (concentration giving a 50% inhibition of growth of normal non-infected cells)
# Protocol: as §1, §2
# AIDS patients = settings: in words, cited from earlier work
smiles,measurement,setting,value
O=C1N[C@H](COC(c2ccccc2)(c2ccccc2)c2ccccc2)[C@@H](O)[C@H](O)[C@H]1O [6-O-triphenylmethyl-D-gluco-δ-lactam],CC50 at 168 h,[1],31.7 µg/mL
same,LD50,"[2]; sc, subcutaneous administration",≥ 300 mg/kg
same,EC50,HIV,0.0386 ng/mL
same,TI50 (IC50/EC50),HIV,8.19 × 10^5
O=C(O)[C@H]1NC(=O)[C@H](O)[C@@H](O)[C@@H]1O [D-glucaro-δ-lactam calcium salt],IC50,[3],> 250 µg/mL
same,EC50,"HIV; MT-2 cells, with HIV, 7 days, viable cell count by colorimetry",< 0.25 ng/mL
same,TI50 (IC50/EC50),HIV,> 1.00 × 10^6
COC(=O)[C@H]1NC(=O)[C@H](O)[C@@H](O)[C@@H]1O [D-glucaro-δ-lactam methyl ester],LD50,[2]; intravenous injection,≥ 5000 mg/kg
same,LD50,[2]; oral administration,≥ 10000 mg/kg
O=C(O)[C@H]1NC(=O)[C@H](O)[C@@H](O)[C@@H]1O [D-glucaro-δ-lactam sodium salt],LD50,[2]; intravenous injection,≥ 3000 mg/kg
same,LD50,[2]; oral administration,≥ 5000 mg/kg
"Cc1cn([C@H]2C[C@H](N=[N+]=[N-])[C@@H](CO)O2)c(=O)[nH]c1=O [azidothymidine (AZT), azidothymidine]",side effects in clinical application,AIDS patients; listed as AZT,side effects of AZT on bone marrow
same,side effects in clinical application,AIDS patients,"serious side effects such as bone marrow depression, anemia and neurologic disorders such as headache and convulsion"
